# Experimental data from ChEMBL document CHEMBL1138046, “Discovery of a new boron-containing antifungal agent, 5-fluoro-1,3-dihydro-1-hydroxy-2,1- benzoxaborole (AN2690), for the potential treatment of onychomycosis” (2006).
# Columns and labels:
# Aspergillus fumigatus = assay: Antifungal activity against Aspergillus fumigatus; type: functional
# Cryptococcus neoformans = assay: Antifungal activity against Cryptococcus neoformans; type: functional
# Candida albicans = assay: Antifungal activity against Candida albicans; type: functional
# Trichophyton benhamiae = assay: Antifungal activity against Trichophyton mentagrophytes; type: functional, Arthroderma benhamiae
# Trichophyton rubrum = assay: Antifungal activity against Trichophyton rubrum; type: functional
SMILES,MIC (Aspergillus fumigatus) [µg/mL],MIC (Cryptococcus neoformans) [µg/mL],MIC (Candida albicans) [µg/mL],MIC (Trichophyton benhamiae) [µg/mL],MIC (Trichophyton rubrum) [µg/mL]
Cc1ccc2c(c1)COB2O,2,8,2,4,8
OB1OCCc2cc(F)ccc21,32,> 64,64,32,32
Fc1ccc2c(c1)COB2c1cccc(Cl)c1,2,0.5,0.25,8,4
c1ccc(B2OCc3ccccc32)cc1,4,8,4,4,4
Fc1cccc(B2OCc3ccccc32)c1,8,4,4,16,8
Fc1ccc(B2OCc3cc(F)ccc32)cc1,2,1,1,4,4
Clc1cccc(B2OCc3ccccc32)c1,8,4,8,8,16
Cc1ccc(B2OCc3cc(F)ccc32)cc1,0.5,0.5,0.5,2,2
N#Cc1ccc2c(c1)COB2O,16,8,8,16,16
Fc1ccc2c(c1)COB2c1ccsc1,1,1,1,4,1
OB1OCc2ccc(F)cc21,8,32,16,32,16
Fc1ccc2c(c1)CCOB2c1ccccc1,8,8,8,8,8
Fc1ccc2c(c1)COB2c1ccoc1,4,4,4,4,4
OB1OCc2cc(Cl)ccc21 [AN-2718],1,2,1,2,1
OB1OCc2ccccc21 [BENZOXABOROLE],2,1,2,4,8
Cc1cc(C2CCCCC2)n(O)c(=O)c1 [CICLOPIROX],1,0.5,0.5,0.5,0.5
OB1OCc2cc(F)ccc21 [TAVABOROLE],0.25,0.25,0.5,1,1
